Assay results from patent US5500410A, “Substituted alkylamide derivatives of teicoplanin” (Gruppo Lepetit S.p.A., priority 1989, dated 1996).

Experiments:
Assay in all cases: In vitro MIC, two-fold dilution in microtiter
Format in all cases: cell-based
[1] = tested on: Pseudomonas aeruginosa ATCC 10145; conditions: for MIC Pseudomonas aeruginosa ATCC 10145: 18-24 h at 37° C., inoculum about 10^4 CFU/ml
Experimental: (§1) Broth cultures are diluted enough so that the final inecuium is about 10^4 colony forming units/ml (CFU/ml).

[2] = tested on: Proteus vulgaris X19H ATCC 881; conditions: 18-24 h at 37° C., inoculum about 10^4 CFU/ml
Experimental: as §1

[3] = tested on: Staphylococcus haemolyticus L 602; conditions: 18-24 h at 37° C., inoculum about 10^4 CFU/ml
Experimental: as §1

[4] = tested on: Streptococcus pneumoniae UC 41; conditions: 18-24 h at 37° C., inoculum about 10^4 CFU/ml
Experimental: as §1

[5] = tested on: Staphylococcus epidermidis ATCC 12228; conditions: 18-24 h at 37° C., inoculum about 10^4 CFU/ml
Experimental: as §1

[6] = tested on: Escherichia coli SKF 12140; conditions: 18-24 h at 37° C., inoculum about 10^4 CFU/ml
Experimental: as §1

[7] = tested on: Streptococcus faecalis ATCC 7080; conditions: 18-24 h at 37° C., inoculum about 10^4 CFU/ml
Experimental: as §1

[8] = tested on: Staphylococcus aureus TOUR; conditions: 18-24 h at 37° C., inoculum about 10^4 CFU/ml
Experimental: as §1

[9] = tested on: Streptococcus pyogenes C 203; conditions: 18-24 h at 37° C., inoculum about 10^4 CFU/ml
Experimental: as §1

Compound	MIC Pseudomonas aeruginosa ATCC 10145 [1]	MIC Proteus vulgaris X19H ATCC 881 [2]	MIC Staphylococcus haemolyticus L 602 [3]	MIC Streptococcus pneumoniae UC 41 [4]	MIC Staphylococcus epidermidis ATCC 12228 [5]	MIC Escherichia coli SKF 12140 [6]	MIC Streptococcus faecalis ATCC 7080 [7]	MIC Staphylococcus aureus TOUR [8]	MIC Streptococcus pyogenes C 203 [9]	MIC against Pseudomonas aeruginosa (comparison compounds) ([1]; strain not specified ("the same microorganism"))
NCCNCCNC(=O)C1NC(=O)C2NC(=O)C(NC(=O)C3NC(=O)C4NC(=O)C(Cc5ccc(c(Cl)c5)Oc5cc3cc(c5O)Oc3ccc(cc3Cl)C2O)NC(=O)C(N)c2ccc(O)c(c2)Oc2cc(O)cc4c2)c2ccc(O)c(c2)-c2c(O)cc(O)cc21 (stereo not shown) [Compound 21]	64 microgram/ml	64 microgram/ml	0.12 microgram/ml	0.12 microgram/ml	0.06 microgram/ml	8 microgram/ml	0.12 microgram/ml	0.06 microgram/ml	0.12 microgram/ml	
NCCNCCCNCCNC(=O)C1NC(=O)C2NC(=O)C(NC(=O)C3NC(=O)C4NC(=O)C(Cc5ccc(c(Cl)c5)Oc5cc3cc(c5O)Oc3ccc(cc3Cl)C2O)NC(=O)C(N)c2ccc(O)c(c2)Oc2cc(O)cc4c2)c2ccc(O)c(c2)-c2c(O)cc(O)cc21 (stereo not shown) [Compound 24]	64 microgram/ml	128 microgram/ml	0.06 microgram/ml	0.12 microgram/ml	0.06 microgram/ml	4 microgram/ml	0.12 microgram/ml	0.06 microgram/ml	0.06 microgram/ml	
NCCCN1CCN(CCCNC(=O)C2NC(=O)C3NC(=O)C(NC(=O)C4NC(=O)C5NC(=O)C(Cc6ccc(c(Cl)c6)Oc6cc4cc(c6O)Oc4ccc(cc4Cl)C3O)NC(=O)C(N)c3ccc(O)c(c3)Oc3cc(O)cc5c3)c3ccc(O)c(c3)-c3c(O)cc(O)cc32)CC1 (stereo not shown) [Compound 30]	16 microgram/ml	128 microgram/ml	0.12 microgram/ml	0.12 microgram/ml	0.06 microgram/ml	4 microgram/ml	0.12 microgram/ml	0.06 microgram/ml	0.06 microgram/ml	
CC(=O)N[C@H]1[C@H](OC2c3ccc(c(Cl)c3)Oc3cc4cc(c3O)Oc3ccc(cc3Cl)CC3NC(=O)C(N)c5ccc(O)c(c5)Oc5cc(O)cc(c5)C(NC3=O)C(=O)NC4C(=O)NC3C(=O)NC2C(=O)NC(C(=O)NCCCNCCCCNCCCN)c2cc(O)cc(O[C@H]4O[C@H](CO)[C@@H](O)[C@H](O)[C@@H]4O)c2-c2cc3ccc2O)O[C@H](CO)[C@@H](O)[C@@H]1O (stereo partly shown) [Compound 39]	128 microgram/ml	> 128 microgram/ml	0.12 microgram/ml	0.5 microgram/ml	0.06 microgram/ml	32 microgram/ml	0.5 microgram/ml	0.25 microgram/ml	0.12 microgram/ml	
CC(=O)N[C@H]1[C@H](OC2c3ccc(c(Cl)c3)Oc3cc4cc(c3O)Oc3ccc(cc3Cl)CC3NC(=O)C(N)c5ccc(O)c(c5)Oc5cc(O)cc(c5)C(NC3=O)C(=O)NC4C(=O)NC3C(=O)NC2C(=O)NC(C(=O)NCCCNCCCCNCCCN)c2cc(O)cc(O)c2-c2cc3ccc2O)O[C@H](CO)[C@@H](O)[C@@H]1O (stereo partly shown) [Compound 44]	16 microgram/ml	128 microgram/ml	0.06 microgram/ml	0.25 microgram/ml	0.06 microgram/ml	4 microgram/ml	0.25 microgram/ml	0.12 microgram/ml	0.06 microgram/ml	
teicoplanin [reference compound]										≥ 32 microgram/ml
